{
  "source": "patent US12310380B2",
  "about": "“Method for extending shelf-life of agricultural produce” (National Institute of Plant Genome Research, priority 2019, dated 2025)",
  "system": "Nanjungud rasbale banana",
  "assay": "Ripening of banana: NO donors versus hypoxia-induced NO",
  "format": "in vivo",
  "conditions": "SNAP 100 μM, chitosan 1%",
  "description": "Effects of using hypoxia-induced NO on fruit ripening were tested against the available NO donors such as SNP (Sodium nitroprusside), SNAP (S-Nitroso-N-acetyl-dl-penicillamine), chitosan on Nanjungud rasbale banana. Physiological concentrations of NO donors were used and the concentration for SNP used was 1 mM, SNAP was used in a concentration of 100 μM, chitosan was used in a concentration of 1%. Out of all the treatments, hypoxia-induced NO yielded better results where a significant delay of ripening was observed (Table-1). SNP and chitosan were effective up to 2 days but later they were ineffective on delaying ripening. Even after 3 days of treatment only one fruit ripened in the presence of formula in comparison to other treatments where 60% of fruits were ripened (FIG. 10). […] It was observed that the delay in ripening of bananas by the method of the present disclosure was 7 days as compared to the bananas which were not treated by the method of the present disclosure.",
  "data": [
    {"compound": "CC(=O)NC(C(=O)O)C(C)(C)SN=O", "note": "(racemic) [SNAP, S-Nitroso-N-acetyl-dl-penicillamine]", "values": [
      {"measurement": "Number of fruits ripened", "setting": "Day 0, SNP 1 mM", "result": 0},
      {"measurement": "Number of fruits ripened", "setting": "Day 1, SNP 1 mM", "result": 0},
      {"measurement": "Number of fruits ripened", "setting": "Day 2, SNP 1 mM", "result": 2},
      {"measurement": "Number of fruits ripened", "setting": "Day 3, SNP 1 mM", "result": 4}
    ]}
  ]
}
